Columns and labels:
Pseudomonas Fluorescens [1] = assay type: cell-based; details: breaker 1.0 gpt added to 0.25 gpt biocide; 1% KCl water pH 7.7, 77° F., 1 h and 5 h
Procedure: 500 mL of 1% KCl water, buffered with sodium bicarbonate to pH 7.7 was inoculated with 10 mL of a Nutrient Broth containing live Pseudomonas f. and blended on a Waring lab blender at 2000 rpm for 5 minutes. After blending, it was separated into 30 mL samples in separate bottles. The first and last bottles were left without biocide or breaker to act as controls. The remaining samples were treated with varying concentrations of biocide and oxidizing breakers.
(§1) Biocidal activity analysis was completed using a […]® PhotonMaster™ luminometer and Quench-Gone™ Organic Modified (QGO-M) ATP test kit. At the initial time (Time 0), both control samples were tested using the ATP kit. All samples were then incubated at 77° F. All samples (5 mL) were then tested using the ATP kit at one hour and again at 5 hours.

Pseudomonas Fluorescens [2] = details: well water, 72° F.
Procedure: The biocidal activity of THPS/oxidizing breaker compositions against Pseudomonas Fluorescens was examined. In the first experiment, 2 L of well water was inoculated with 4 mL of a Nutrient Broth containing live Pseudomonas f. and stirred using an overhead mixer at 2000 rpm. After thorough mixing, and with the mixer running, 150 mL samples were taken with a syringe and inserted into separate bottles. The first and last bottles were left without biocide or breaker to act as controls. The remaining samples were treated with varying concentrations of biocide and oxidizing breakers.
as §1, with “left” for “incubated”, “ambient lab temperature (72° F.).” for “77° F.”, “(20 mL each)” for “(5 mL)”, “and” for “and again”, “24” for “5”

Molecule	effect of added breaker on decrease in microbial activity (ATP analysis) (Pseudomonas Fluorescens [1])	compatibility of biocidal activity with oxidizing breakers (ATP analysis) (Pseudomonas Fluorescens [2]; THPS 20% 0.25 or 0.50 gpt with sodium persulfate, hydrogen peroxide 7% or sodium chlorite 8%, 1 h and 24 h)	effect of addition of the breakers on biocidal properties (ATP analysis) (Pseudomonas Fluorescens [2]; THPS concentration of 0.25 gpt, 1 h and 24 h (FIG. 5))
sodium chlorite [sodium chlorite 8%]	may be accelerated or enhanced slightly	–	–
tetrakis(hydroxymethyl)phosphonium sulphate [THPS]	–	no apparent incompatibility	appears to enhance or accelerate the biocidal properties
OO [hydrogen peroxide 7%, hydrogen peroxide]	may be accelerated or enhanced slightly	–	–

Reference: US10836954B2 (priority 2015, dated 2020)
